Measurements from ChEMBL document CHEMBL3714709, “T1R hetero-oligomeric taste receptors, cell lines that express said receptors, and taste compounds” (2008).
Calls of active or inactive are those of the source. No cut-off for these calls is given here.

Tests used:
T1R1/T1R3 (Homo sapiens) = T1R1/T1R3 (Homo sapiens) (UniProt Q7RTX0+Q7RTX1); test: Activation of human T1R1/T1R3; type: protein-complex assay
[1] = biological target: T1, Taste receptor type 2 member 105 (Mus musculus) (UniProt Q9JKT4); test: Inhibition of mouse T2R5 expressed in HEK293 cells; type: cell-based
T1 sequence (whole entry): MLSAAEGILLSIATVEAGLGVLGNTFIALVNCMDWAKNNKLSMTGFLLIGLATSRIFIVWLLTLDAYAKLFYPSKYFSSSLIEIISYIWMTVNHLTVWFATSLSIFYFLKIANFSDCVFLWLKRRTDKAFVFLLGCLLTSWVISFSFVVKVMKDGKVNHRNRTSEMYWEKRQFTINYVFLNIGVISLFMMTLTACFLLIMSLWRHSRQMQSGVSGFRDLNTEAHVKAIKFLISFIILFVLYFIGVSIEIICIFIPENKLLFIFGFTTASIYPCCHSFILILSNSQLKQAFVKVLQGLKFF

[2] = biological target: Muscarinic acetylcholine receptor (Homo sapiens) (UniProt P20309+P08173+P11229+P08172+P08912); test: Inhibition of mAChR (unknown origin) expressed in HEK293 cells; type: cell-based

| Activity (T1R1/T1R3 (Homo sapiens)) | inhibition [1] | inhibition [2] | SMILES |
| --- | --- | --- | --- |
| inactive | – | – | N[C@H](Cc1c[nH]c2ccccc12)C(=O)O |
| – | inactive | inactive | COc1ccc(OC(C)C(=O)O)cc1 (stereo not given) |
| inactive | – | – | O=C1NS(=O)(=O)c2ccccc21 |
| inactive | – | – | OC[C@H]1O[C@@](CO)(O[C@H]2O[C@H](CO)[C@@H](O)[C@H](O)[C@H]2O)[C@@H](O)[C@@H]1O |
